Read-outs that look alike come from different tables or passages of the source.
Assays:
ETA Receptor = target: T1, ETA Receptor (Rattus norvegicus, UniProt P26684); assay: [125I]ET-1 binding to membranes from MMQ cells (ETA receptor binding assay, Table 4); conditions: for inhibition at 1 µM: read-out: % Inhibition of ETA at 1 μM
T1 construct: endogenous in cells; host or cells: MMQ rat pituitary cells (membranes)
T1 sequence (P26684 21-426): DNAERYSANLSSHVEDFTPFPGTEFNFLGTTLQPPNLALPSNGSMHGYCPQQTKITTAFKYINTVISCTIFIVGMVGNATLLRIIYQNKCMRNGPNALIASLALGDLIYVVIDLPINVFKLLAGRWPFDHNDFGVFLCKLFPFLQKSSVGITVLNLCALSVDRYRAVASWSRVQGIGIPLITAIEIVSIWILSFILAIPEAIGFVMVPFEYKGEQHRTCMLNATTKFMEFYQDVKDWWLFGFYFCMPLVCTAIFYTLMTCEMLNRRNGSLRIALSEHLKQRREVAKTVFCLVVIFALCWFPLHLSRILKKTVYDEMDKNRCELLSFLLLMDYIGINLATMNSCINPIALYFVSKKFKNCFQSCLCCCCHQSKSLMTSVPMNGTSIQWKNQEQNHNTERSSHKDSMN

[1] = target: T2, ETA receptor in MMQ cells (rET-A) (Rattus norvegicus, UniProt P26684); assay: ETA/ETB selectivity: (125I)ET-1 competition binding, ETA assay in MMQ cell membranes (rET-A)
T2 construct: endogenous in cells; host or cells: MMQ rat pituitary cells (membranes)
T2 sequence (P26684 21-426): T1 sequence (P26684 21-426)
Method: (§1) The mixture was centrifuged at 1000×g for 10 min. The supernatant was collected and centrifuged at 60,000×g for 60 min. The precipitate was resuspended in 20 mM Tris, pH 7.4 containing protease inhibitor and centrifuged again. The final membrane pellet was resuspended in 20 mM Tris, pH 7.4 containing protease inhibitors and stored at −80° C. until used. Protein content was determined by the Bio-Rad dye-binding protein assay.
(§2) Binding assays were performed in 96-well microtiter plates pretreated with 0.1% BSA. […] After incubation, unbound ligands were separated from bound ligands by a vacuum filtration method using glass-fiber filter strips in PHD cell harvesters (Cambridge Technology, Inc., MA), washing the filter strips three times with saline (1 mL). Nonspecific binding was determined in the presence of 1 μM ET-1. IC50 values are calculated using an average of at least two separate determinations.

[2] = target: T3, ETB receptors of porcine cerebellar tissues (pET-B) (Sus scrofa, UniProt P35463); assay: ETA/ETB selectivity: (125I)ET-3 competition binding, ETB assay in porcine cerebellum membranes (pET-B)
T3 construct: porcine cerebellar tissues (known to contain ETB receptors); from tissue; host or cells: porcine cerebellum (membranes)
T3 sequence (P35463 27-443): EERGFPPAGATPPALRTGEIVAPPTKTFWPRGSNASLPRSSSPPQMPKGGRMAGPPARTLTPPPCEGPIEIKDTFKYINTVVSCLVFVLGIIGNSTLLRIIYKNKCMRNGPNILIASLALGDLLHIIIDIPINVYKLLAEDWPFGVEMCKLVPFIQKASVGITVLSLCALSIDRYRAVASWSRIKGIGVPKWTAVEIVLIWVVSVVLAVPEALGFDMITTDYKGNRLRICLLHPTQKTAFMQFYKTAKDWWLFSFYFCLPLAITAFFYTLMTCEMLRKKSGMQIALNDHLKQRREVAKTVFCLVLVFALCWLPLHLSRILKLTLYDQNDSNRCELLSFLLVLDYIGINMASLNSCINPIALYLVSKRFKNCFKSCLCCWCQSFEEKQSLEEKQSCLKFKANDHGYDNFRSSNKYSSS
Method: as §1, §2

human ETB receptor = target: T4, human ETB receptor (Homo sapiens, UniProt P24530); assay: ETA/ETB selectivity: (125I)ET-3 competition binding, CHO cells transfected with human ETB receptor (hET-B); conditions: CHO cells transfected with human ETB receptor; 0.1 nM (125I)ET-3; read-out: hET-B IC50
T4 construct: expressed in transfected cells; host or cells: CHO cells, permanently transfected
T4 sequence (P24530 27-442): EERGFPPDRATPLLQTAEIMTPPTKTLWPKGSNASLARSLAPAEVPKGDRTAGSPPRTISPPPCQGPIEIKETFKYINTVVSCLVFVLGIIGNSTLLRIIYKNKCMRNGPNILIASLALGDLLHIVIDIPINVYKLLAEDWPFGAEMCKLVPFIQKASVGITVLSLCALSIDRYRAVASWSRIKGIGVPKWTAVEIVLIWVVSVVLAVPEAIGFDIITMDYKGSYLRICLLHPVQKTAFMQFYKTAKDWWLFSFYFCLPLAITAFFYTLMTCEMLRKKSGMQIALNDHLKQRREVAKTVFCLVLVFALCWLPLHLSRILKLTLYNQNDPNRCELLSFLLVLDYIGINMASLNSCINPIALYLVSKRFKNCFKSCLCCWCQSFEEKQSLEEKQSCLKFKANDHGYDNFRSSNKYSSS
Method: MMQ cells, porcine cerebellar tissues (known to contain ETB receptors) and chinese hamster ovary cells (CHO) permanently transfected with the human ETA or ETB receptor were homogenized in 25 ml of 10 mM Hepes (pH 7.4) containing 0.25 M sucrose and a protease inhibitor [50 mM EDTA, 0.1 mM PMSF, 5 μg/ml Pepstatin A, and 0.025% Bacitracin] using a micro ultrasonic cell disrupter. The mixture was centrifuged at 1000×g for 10 min. The supernatant was collected and centrifuged at 60,000×g for 60 min. The precipitate was resuspended in 20 mM Tris, pH 7.4 containing protease inhibitor and centrifuged again. The final membrane pellet was resuspended in 20 mM Tris, pH 7.4 containing protease inhibitors and stored at −80° C. until used. Protein content was determined by the Bio-Rad dye-binding protein assay.
Binding assays were performed in 96-well microtiter plates pretreated with 0.1% BSA. Membranes prepared from cells were diluted 100 fold in Buffer B (20 mM Tris, 100 mM NaCl, 10 mM MgCl2, pH 7.4, with 0.2% BSA, 0.1 mM PMSF, 5 μg/mL Pepstatin A, 0.025% bacitracin, and 50 mM EDTA) to a final concentration of 0.2 mg/mL of protein. In competition binding studies, membranes (0.02 mg) were incubated with 0.1 nM of (^125I)ET-1 (for ETA assay in MMQ or CHO cells transfected with human ETA receptor) or (^125I)ET-3 (for ETB assay in porcine cerebellum or CHO cells transfected with human ETB receptor) in Buffer B (final volume: 0.2 mL) in the presence of increasing concentrations of the test compound for 3 hours at 25° C. After incubation, unbound ligands were separated from bound ligands by a vacuum filtration method using glass-fiber filter strips in PHD cell harvesters (Cambridge Technology, Inc., MA), washing the filter strips three times with saline (1 mL). Nonspecific binding was determined in the presence of 1 μM ET-1. IC50 values are calculated using an average of at least two separate determinations.

human ETA receptor = target: T5, human ETA receptor (Homo sapiens, UniProt P25101); assay: ETA/ETB selectivity: (125I)ET-1 competition binding, CHO cells transfected with human ETA receptor (hET-A)
T5 construct: expressed in transfected cells; host or cells: CHO cells, permanently transfected
T5 sequence (P25101 21-427): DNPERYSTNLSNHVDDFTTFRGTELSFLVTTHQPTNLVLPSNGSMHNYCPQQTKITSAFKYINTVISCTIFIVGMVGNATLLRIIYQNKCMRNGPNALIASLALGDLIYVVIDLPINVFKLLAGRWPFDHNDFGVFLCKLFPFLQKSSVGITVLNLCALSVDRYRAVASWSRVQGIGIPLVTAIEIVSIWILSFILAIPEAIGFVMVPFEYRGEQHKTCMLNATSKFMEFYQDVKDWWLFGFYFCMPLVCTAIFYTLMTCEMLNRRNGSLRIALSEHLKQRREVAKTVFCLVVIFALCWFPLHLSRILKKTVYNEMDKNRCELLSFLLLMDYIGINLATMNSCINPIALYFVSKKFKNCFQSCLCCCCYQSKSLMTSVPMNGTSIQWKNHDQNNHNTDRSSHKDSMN
Method: as §1, §2

[3] = test compound at 1 μM, 0.1 nM [125I]ET-1, MMQ cell membranes, 4 hours at 25° C.
[4] = MMQ cell membranes, 0.1 nM (125I)ET-1, read-out: rET-A IC50
[5] = CHO cells transfected with human ETA receptor, 0.1 nM (125I)ET-1, read-out: hET-A IC50
[6] = porcine cerebellum membranes, 0.1 nM (125I)ET-3, read-out: pET-B IC50

% Inhibition of ETA at 1 μM (ETA Receptor; [3]) [%]	inhibition at 1 µM (ETA Receptor; [3]) [%]	IC50 [1, 4] [nM]	Compound	other results
96.3	–	–	CCCCN(CCCC)C(=O)CN1CC(c2ccc3c(c2)OCO3)C(C(=O)O)C1c1ccc(OC)c(F)c1 (stereo not drawn) [Example 313, trans—trans-2-(4-Methoxy-3-fluorophenyl)-4-(1,3-benzodioxol-5-yl)-1-[N,N-di(n-butyl)aminocarbonylmethyl]-pyrrolidine-3-carboxylic acid]	–
86.0	–	–	CCCCCS(=O)(=O)N(CCC)CCN1CC(c2ccc3c(c2)OCO3)C(C(=O)O)C1CCC (stereo not drawn) [Example 314, trans,trans-2-(Propyl)-4-(1,3-benzodioxol-5-yl)-1-(2-(N-propyl-pentanesulfonylamino)ethyl)pyrrolidine-3-carboxylic acid]	–
–	95.9	–	COc1ccc(C2C(C(=O)O)C(c3ccc4c(c3)OCO4)CN2CC(=O)Nc2ccccc2)cc1 (stereo not drawn) [Example 495]	–
5.8	–	–	CCc1ccccc1C(NC(=O)CN1CC(c2ccc3c(c2)OCO3)C(C(=O)O)C1c1ccc(OCCOC(C)C)cc1)c1ccccc1C (stereo not drawn) [Example 559, trans,trans-2-[4-(2-Isopropopoxyethoxy)phenyl]-4-(1,3-benzodioxol-5-yl)-1-(N-((1-(o-tolyl)-1-(o-ethylphenyl)-methyl)amino)carbonylmethyl)-pyrrolidine-3-carboxylic acid]	–
0	–	–	CC(C)OCCOc1ccc(C2C(C(=O)O)C(c3ccc4c(c3)OCO4)CN2CC(=O)NN(c2ccccc2)C(C)(C)C)cc1 (stereo not drawn) [Example 560, trans,trans-2-(4-(2-(2-Propoxy)ethoxy)phenyl)-4-(1,3-benzodioxol-5-yl)-1-N-phenyl-N-t-butylhydrazino carbonylmethyl)-pyrrolidine-3-carboxylic acid]	–
0	–	–	COCCOc1ccc(C2C(C(=O)O)C(c3ccc4c(c3)OCO4)CN2CC(=O)NN(c2ccccc2)C(C)(C)C)cc1 (stereo not drawn) [Example 561, trans,trans-2-(4-(2-Methoxyethoxy)phenyl)-4-(1,3-benzodioxol-5-yl)-1-(N-phenyl-N-t-butylhydrazinocarbonylmethyl)-pyrrolidine-3-carboxylic acid]	–
–	–	–	CCCCN(CCCC)C(=O)CN1CC(c2ccc3c(c2)OCO3)C(C(=O)O)C1CC(C)CCC (stereo not drawn) [compound 502]	IC50 [1]: 3 nM; IC50 [2]: 71000 nM; inhibition at 1 µM (ETA Receptor): 95.7%
–	99.2	0.81	CCCC(CCC)N(C(=O)CN1C[C@H](c2ccc3c(c2)OCO3)[C@@H](C(=O)O)[C@@H]1CC(C)(C)CCC)c1ccc(F)c(C)c1 [compound 511]	IC50 (human ETB receptor): 15000 nM; IC50 (human ETA receptor; [5]): 0.6 nM
–	97.4	0.2	CCCCN(CCCC)C(=O)CN1C[C@H](c2ccc3c(c2)OCO3)[C@@H](C(=O)O)[C@@H]1CCN1CCCC1=O [compound 520]	IC50 [2, 6]: 28000 nM
–	100	0.67	CCCC(CCC)N(C(=O)CN1C[C@H](c2ccc3c(c2)OCO3)[C@@H](C(=O)O)[C@@H]1CCN1CCCC1=O)c1ccc(F)c(C)c1 [compound 521]	IC50 [2, 6]: 37000 nM
–	100	42	CCCCN(CCCN)C(=O)CN1CC(c2ccc3c(c2)OCO3)C(C(=O)O)C1c1ccc(OC)cc1 (stereo not drawn) [compound 526]	IC50 (human ETB receptor): 7400 nM; IC50 (human ETA receptor; [5]): 17 nM
–	96.6	7.9	CCCCN(CCCN(C)C)C(=O)CN1CC(c2ccc3c(c2)OCO3)C(C(=O)O)C1c1ccc(OC)cc1 (stereo not drawn) [compound 527]	IC50 [2, 6]: 10000 nM
–	98.3	11	CCCCN(CCC[N+](C)(C)C)C(=O)CN1CC(c2ccc3c(c2)OCO3)C(C(=O)O)C1c1ccc(OC)cc1 (stereo not drawn) [compound 528]	IC50 [2, 6]: 43000 nM
–	98.1	3.6	CCCCN(CCCCN)C(=O)CN1CC(c2ccc3c(c2)OCO3)C(C(=O)O)C1c1ccc(OC)cc1 (stereo not drawn) [compound 529]	IC50 [2, 6]: 6300 nM
–	–	–	CC=CC(C)(C)CC1C(C(=O)O)C(c2ccc3c(c2)OCO3)CN1CC(=O)N(CCCC)CCCC (stereo not drawn) [compound 552]	IC50 (human ETB receptor): > 96000 nM; inhibition at 1 µM ([1]; 1 μM test compound, MMQ cell membranes): 97.3%; IC50 (human ETA receptor): 1 nM
82.1	–	–	(2R,3R,4S)-(+)-2-(4-Methoxyphenyl)-4-(1,3-benzodioxol-5-yl)-1-(tert-butyloxycarbonyl-aminocarbonylmethyl)-pyrrolidine-3-carboxylic acid [Example 95D]	–

Compound	% Inhibition of ETA at 1 μM (ETA Receptor; [3]) [%]	inhibition at 1 µM (ETA Receptor; [3]) [%]	IC50 [1, 4] [nM]	other results
CCCCN(CCCC)C(=O)CN1CC(c2cc(OC)c3c(c2)OCO3)C(C(=O)O)C1CC(C)(C)CCC (stereo not drawn) [compound 514]	–	100	1	IC50 [2]: 26000 nM
CCCCN(CCCC)C(=O)CN1C[C@H](c2cc(OC)c3c(c2)OCO3)[C@@H](C(=O)O)[C@@H]1CC(C)(C)CCC [compound 536]	–	100	0.52	IC50 [2]: 17000 nM
